The nature of series [1]: Solubility of the ligands in the NMR study. The settings on record: NMR study samples.
Series [2] concerns the target T1, K-Ras4B bound to GDP (Homo sapiens, UniProt P01116).
T1 construct: made in house; host or cells: E. coli
The note with it: NMR titration, cited from earlier work.

Series [3] concerns the target T2, GDP-bound K-Ras4B (Homo sapiens, UniProt P01116).
T2 construct: made in house; host or cells: E. coli
In words: Shift of Y157 amide NMR resonance towards active GppNHp-bound state. It is filed as binding. The settings on record: saturated ligand-protein complex. Here is the method:
(§1) The NMR titration experiments, resonance assignments, and data handling were performed as previously published. Spectra were acquired on Bruker DRX 600 and AVANCE III HD 700 spectrometers, except for ^19F NMR spectra that were recorded on a Bruker DPX 250 spectrometer at 235 MHz. The reference experiment for the competitive titration of ^14N SOS^cat and BPAF to ^15N-enriched GDP-bound K-Ras4B was acquired in the presence of 0.2 mM BPAF in PBS at pH 7.4. Upon titration of ^14N SOS^cat to a 0.4 mM sample of GDP-bound ^15N-enriched K-Ras4B, line broadening and/or disappearance of NMR resonances for GDP-loaded K-Ras4B bound to SOS^cat is observed probably due to rotational correlation effects of the approx. 80 kDa protein-protein complex. Line broadening can already be detected in 2D ^1H-^15N HSQC spectra of ^14N SOS^cat:^15N-enriched GDP-bound K-Ras4B at a molar ratio of 1:1, and this effect is more pronounced when extra SOS^cat is added to adjust a molar ratio of 1:2. Addition of an increasing amount of BPAF to the 1:2 ^15N-enriched K-Ras4B/^14N SOS^cat complex (1:2:0.5, 1:2:1, 1:2:4) recovers the backbone amide proton NMR resonances in 2D ^1H-^15N HSQC spectra. The acquired NMR spectrum is similar to the ^15N-enriched GDP-bound K-Ras4B:BPAF ^1H-^15N HSQC spectrum.

The subject of series [4] is Hela cells. Kind of series: MTT cytotoxicity assay. The series is classed as cell-based. The note with it: Homo sapiens, Hela cells exposed for 72 hrs. Here is the method:
Hela cells were used to determine IC50 values for different bisphenols. Therefore cells (1100 cells/well) were seeded in 96 well plates. 24 h after seeding cells were treated with individual bisphenols or corresponding DMSO in indicated concentrations up to 72 h. Subsequently, 10 μL of a MTT stock solution (5 mg/mL) were added to each well for 4 h. The mixture was removed carefully via pipetting, and the remaining formazan crystals formed were dissolved by 100 μL DMSO/10% SDS/0.01 M acetic acid for 15 min. The absorbance (570 nm and reference 620 nm) was determined using an absorbance reader and blank values were subtracted. Prism 6 (GraphPad Software, La Jolla, CA, USA) was used to calculate IC50 values.
(Tetrazolium assays rely on reduction of a dye to a coloured formazan, in cell work by metabolically active cells.)

The target in series [5] is T3, K-Ras4B (Homo sapiens, UniProt P01116). On the set-up: made in house; host or cells: E. coli (given for K-Ras4B only); method as in PMID 26867649. The settings on record: cited from earlier work.
Series [6] concerns the target T1, K-Ras4B bound to GDP. Kind of series: NMR titration (1H-15N HSQC chemical shift perturbation) of GDP-bound K-Ras4B. It is filed as binding. Here is the method:
The NMR titration experiments, resonance assignments, and data handling were performed as previously published. Spectra were acquired on Bruker DRX 600 and AVANCE III HD 700 spectrometers, except for ^19F NMR spectra that were recorded on a Bruker DPX 250 spectrometer at 235 MHz. The reference experiment for the competitive titration of ^14N SOS^cat and BPAF to ^15N-enriched GDP-bound K-Ras4B was acquired in the presence of 0.2 mM BPAF in PBS at pH 7.4.

Series [7] has as its target T4, H-Ras (Homo sapiens, UniProt P01112).
T4 construct: made in house; host or cells: E. coli
Kind of series: NMR-based titration of H-Ras. The series is classed as binding.

Series [8] concerns Ras. Kind of series: G-LISA Ras activation assay. The settings on record: serum-starved HEK293T cells, BPAF 20 µM, 1, 2, 4 h. It is filed as cell-based. Here is the method:
(§2) G-LISA Ras activation assay was performed as described before. Briefly, HEK293T cells were seeded in 10-cm dishes followed by overnight incubation and afterwards serum-starved for 16 h. Cells were then treated with individual bisphenols (BPAF [20 µM] and BPNH2 [33 µM]) or DMSO (control, Ctrl) in a time-dependent manner (1, 2, 4 h), subsequently lysed and the protein concentration was determined using Precision RedTM Advanced Protein Assay Reagent. Quantitative analysis of active Ras was performed with a G-LISA Ras activation assay (Cytoskeleton, Inc., Denver CO, USA) using 1 mg/mL of the sample. The signal intensity was determined by measuring absorbance at 490 nm using a microplate spectrophotometer. Additionally, these lysates were subjected to western blot analysis in order to determine the activation of ERK and AKT signalling. To test for statistical significance, a two-tailed Student’s t-test was applied using Prism version 5.0 (GraphPad Software, La Jolla, CA, USA).

Series [9] concerns ERK. Kind of series: Western blot of ERK phosphorylation (pERK/total ERK). The series is classed as cell-based. The note with it: serum-starved HEK293T cells, BPAF 20 µM, BPNH2 33 µM. Here is the method: as §2
Series [10] addresses T5, GDP-bound K-Ras4B/SOS^cat complex (Homo sapiens, UniProt P01116).
T5 construct: made in house; host or cells: E. coli (given for K-Ras4B only)
Kind of series: Competitive NMR titration of 15N K-Ras4B with 14N SOScat and ligand. The series is classed as binding. The note with it: BPAF added to 1:2 K-Ras4B/SOScat complex, recovery of resonances. Here is the method:
as §1

For series [11], the target named is T6, N-Ras (1-170) (Homo sapiens, UniProt P01111).
T6 construct: For N-Ras (1-170), we also observed a similar pattern of CSPs; made in house
In words: NMR-based titration of N-Ras. It is filed as binding.

Series [12] concerns the target T3, K-Ras4B. Kind of series: GDI (guanine nucleotide dissociation inhibition) assay with mantGppNHp. More on the design: made in house; host or cells: E. coli. It is filed as biochemical. Here is the method:
(§3) The SOS^cat assay was performed as described. Briefly, a solution of 1 µM Ras*mantGDP, 200 µM GDP was mixed with different concentrations of BPNH2 and incubated at 20 °C for 5–10 min. To prevent insolubility of the BPNH2, 5% v/v DMSO was applied. After adding 0.5 µM of SOS^cat, a fluorescence spectrum was recorded with a Perkin Elmer LS50B instrument applying an excitation wavelength of 366 nm and an emission wavelength of 442 nm. The kobs value describing the dissociation rate of the nucleotide is obtained for each BPNH2 concentration from a single exponential fit to the fluorescence time course. The GDI (guanine nucleotide dissociation inhibitor) assay is carried out similar to the SOS^cat assay: Instead of mantGDP, the non-hydrolysable GTP analogue mantGppNHp is used but no SOS^cat is added here. Again, the dissociation of the fluorescent nucleotide from Ras in the presence of various BPNH2 concentrations is detected by the decrease of fluorescence and the time dependence yields the kobs values. A plot of the kobs values versus BPNH2 concentration fitted by a binding isotherm yields the KD value of the BPNH2 complex (Figure 4 and Figure S7).
Supporting Figure 7. GDI assay carried out in triplicate (black, red, green; upper panel): The GDI (guanine nucleotide dissociation inhibitor) assay is carried out similar to the SOScat assay: Instead of mantGDP, the non-hydrolysable GTP analogue mantGppNHp is used but no SOScat is added here. Again, the dissociation of the fluorescent nucleotide from Ras in the presence of various
BPNH2 concentrations is detected by the decrease of fluorescence and the time dependence yields the kobs values. A plot of the kobs values versus BPNH2 concentration fitted by a binding isotherm yields the KD value of the BPNH2 complex (please also refer to […]
MTT cytotoxicity assay (lower four panels): The IC50 values in Hela cells exposed for 72 hrs to BPs were determined as follows: 53.79 […]
(1 picture or pasted object on this page, not shown here)

The target in series [13] is T7, Rap-1A (Homo sapiens, UniProt P62834).
T7 construct: Rap1A comprising residues 1–170 were expressed in E. coli; made in house; host or cells: E. coli
T7 sequence (P62834 1-170): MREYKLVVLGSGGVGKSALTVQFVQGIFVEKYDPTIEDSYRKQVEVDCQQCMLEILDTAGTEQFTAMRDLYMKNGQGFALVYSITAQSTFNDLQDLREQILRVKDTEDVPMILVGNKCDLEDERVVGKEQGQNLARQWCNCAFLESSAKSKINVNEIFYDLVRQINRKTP
Kind of series: NMR titration of Rap-1A. It is filed as binding. The note with it: up to a BPAF concentration of 5 mM.

In series [14] the test system is AKT kinase. In words: Western blot of AKT phosphorylation (pAKT/total AKT). The series is classed as cell-based. The note with it: serum-starved HEK293T cells, BPAF 20 µM, BPNH2 33 µM. Here is the method:
as §2

Series [15] concerns the target T3, K-Ras4B. In words: SOScat-catalysed guanine nucleotide exchange assay (mant-GDP fluorescence). On the set-up: made in house; host or cells: E. coli (given for K-Ras4B only). It is filed as biochemical. Here is the method:
as §3

[16] abbreviates: NMR titration, GDP-bound 15N-enriched K-Ras4B.

Here are results for 11 compounds from publication PMC5979466, “Allosteric Activation of GDP-Bound Ras Isoforms by Bisphenol Derivative Plasticisers” (International Journal of Molecular Sciences, 2018).

SMILES strings stand for the structures. Where two headings read alike, the source gives them in different places.

Take `Oc1ccc(C2(c3ccc(O)cc3)c3ccccc3-c3ccccc32)cc1` [BPFL, 4,4′-(9-Fluorenylidene)diphenol]: the solubility comment entry in series [1] is “insoluble”.

Consider `O=S(=O)(c1ccc(O)cc1)c1ccc(O)cc1` [BPS, 4,4′-Sulfonyldiphenol], for which the results for the Kd in series [2] (listed as S) and in series [2] were 6000 ± 700 µM and 5800 µM, respectively. In addition, in series [3], the “shift of Y157 amide resonance relative to the frequency in the active GppNHp-bound state” value came out at 20%. In series [4], this compound displayed an IC50 of 119 µM. Further, in series [5], the “interference with GEF (Sos)-mediated nucleotide exchange from GDP to GTP” value is “cannot interfere”.

With `CC(c1ccccc1)(c1ccc(O)cc1)c1ccc(O)cc1` [BPAP, 4,4′-(1-Phenylethylidene)bisphenol], in series [1], the solubility comment entry is “insoluble”.

For the compound `CC(c1ccc(O)cc1)c1ccc(O)cc1` [BPE, 1,1-Bis(4-hydroxyphenyl)ethane], the equilibrium dissociation constant (Kd) in series [6] (setting [16]) amounted to 6500 µM.

For the compound `Oc1ccc(C(c2ccc(O)cc2)(C(F)(F)F)C(F)(F)F)cc1` [BPAF, 2,2-Bis(4-hydroxyphenyl)hexafluoropropane], the Kd was 400 ± 20 µM in series [7]; 350 ± 20 µM in [6] (setting [16]); 347 ± 5 µM in [6] (calculated from six binding pocket residues (L6, V9, Y40, L56, T74, G75), Fig. S1); 770 ± 20 µM in [11]. Besides, the “Ras activity (G-LISA)” value in [8] is “significant and time-dependent augmentation of Ras activity”. Moreover, in [9], the “level of ERK phosphorylation / Ras signalling via c-Raf kinase” value was “increased the level of ERK phosphorylation”. The “antagonism of the interaction between GDP-bound K-Ras4B and SOScat” value in series [10] is recorded as “can antagonise”. Further, the “shift of Y157 amide resonance relative to the frequency in the active GppNHp-bound state” value in series [3] was found to be 58%. Besides, the “GDI-effect (inhibition of nucleotide dissociation)” value in [12] is listed as “no or only a very small effect”. In addition, in [4], the IC50 was found to be 17.8 µM. The “chemical shift perturbations (CSPs) on titration” value in [13] is “could not be detected”. In series [14], the “level of phosphorylated AKT kinase (pAKT)” value is “slightly elevated levels of phosphorylated AKT kinase (pAKT) after 2 h”. Moreover, the “interference with the SOScat mediated nucleotide exchange” value in series [15] is “interfere”.

Take `Oc1ccc(C(c2ccccc2)(c2ccccc2)c2ccc(O)cc2)cc1` [BPBP, Bis(4-hydroxyphenyl)diphenylmethane]: in [1], the solubility comment entry is “insoluble”.

With `CCC(C)(c1ccc(O)cc1)c1ccc(O)cc1` [BPB, 2,2-Bis(4-hydroxyphenyl)butane], the Kd in series [6] (setting [16]) was 3600 µM.

As to `CC(C)(c1ccc(O)cc1)c1ccc(O)cc1` [BPA, 2,2-Bis(4-hydroxyphenyl)propane], the “shift of Y157 amide resonance relative to the frequency in the active GppNHp-bound state” value in [3] was found to be 49%. Also, inhibition in series [4] was half-maximal at 53.8 µM (IC50). Also, the “interference with GEF (Sos)-mediated nucleotide exchange from GDP to GTP” value in series [5] is listed as “can interfere”.

`Nc1cc(C(c2ccc(O)c(N)c2)(C(F)(F)F)C(F)(F)F)ccc1O` [BPNH2, 2,2-Bis(3-amino-4-hydroxyphenyl)hexafluoropropane]: the “level of ERK phosphorylation / Ras signalling via c-Raf kinase” value in series [9] is “failed to activate”. In addition, the Kd was 400 µM in series [6] (setting [16]); 340 ± 20 µM in series [12] (mantGppNHp, no SOScat, triplicate, read-out: KD from GDI-assay); 200 ± 100 µM in series [15] (kobs of mGDP dissociation versus ligand concentration, 0.5 µM SOScat, 20 °C, 5% DMSO, read-out: KD from SOScat-assay). In series [3], the “shift of Y157 amide resonance relative to the frequency in the active GppNHp-bound state” value is recorded as “approx. 64%”. Besides, in [12], the “GDI-effect (inhibition of nucleotide dissociation)” value was “significant GDI-effect”. This compound had an IC50 in [4] of 33 µM. Also, the “level of phosphorylated AKT kinase (pAKT)” value in series [14] is “clearly be detected already after 1 h”. Further, the “interference with the SOScat mediated nucleotide exchange” value in series [15] is on record as “interfere”.

In the case of `Oc1ccc(C(F)(F)F)cc1` [AFX, 4-(Trifluoromethyl)phenol, reference compound], in [6] (setting [16]), the Kd is over 50000 µM.

On to `Oc1ccc(Cc2ccc(O)cc2)cc1` [BPF, 4,4′-Methylenediphenol], for which the Kd in series [6] (setting [16]) came out at 14000 µM.

One may read the Kd as the free concentration of one partner at which half of the binding sites on the other are occupied at equilibrium, for simple one-to-one binding. By IC50 is commonly meant the concentration that gives 50% inhibition. High values mean weaker potency in that assay, low ones greater potency in that assay.
